Experimental findings from ChEMBL document CHEMBL4354864, “Bicyclic α-Iminophosphonates as High Affinity Imidazoline I2 Receptor Ligands for Alzheimer's Disease” (J Med Chem, 2020) are described below.

The source made the active and inactive calls. The calls are words filed in the database; no cut-off is given here.

In one data set the test system is HeLa. Description: Cytotoxicity against human HeLa cells assessed as effect on cell morphology at 100 uM incubated for 3 to 5 days by microscopic analysis. The class given is cell-based.
Data set [1] has as its system Vero. Description: Cytotoxicity against monkey Vero cells assessed as effect on cell morphology at 100 uM incubated for 3 to 5 days by microscopic analysis. The class given is cell-based. The following applies: chlorocebus sabaeus.
Data set [2] has as its system MDCK. Description: Cytotoxicity against dog MDCK cells assessed as effect on cell morphology at 100 uM incubated for 3 to 5 days by microscopic analysis. The class given is cell-based, Canis lupus familiaris.
For data set [3], the system named is Vero. The data set is described as follows: Cytotoxicity against monkey Vero cells assessed as reduction in cell viability at 100 uM incubated for 3 to 5 days by colorimetric analysis. The class given is cell-based. To be noted: chlorocebus sabaeus.
The test system of data set [4] is MDCK. Description: Cytotoxicity against dog MDCK cells assessed as reduction in cell viability at 100 uM incubated for 3 to 5 days by colorimetric analysis. The class given is cell-based, Canis lupus familiaris.
Another data set concerns MT4. Description: Cytotoxicity against human MT4 cells assessed as reduction in cell viability at 100 uM incubated for 3 to 5 days by colorimetric analysis. The class given is cell-based. To be noted: mt4, 100 µM.
Data set [5] can be described thus: Solubility of compound in water incubated for 2 hrs by nephelometry. The class given is physicochemical. To be noted: buffer.
Data set [6] in a line: Stability in rat liver microsomes at 5 uM incubated for 60 mins by UPLC-MS/MS analysis. The class given is ADME, Microsome. To be noted: 1 h. (In general: Liver microsomes are a subcellular fraction often used to study metabolism.)
The next data set addresses Cytochrome P450 3A4 (Homo sapiens, UniProt P08684). The data set is described as follows: Inhibition of recombinant human CYP3A4 at 10 uM using 7-benzyloxytrifluoromethyl coumarin (7-BFC) and Dibenzylfluorescein as substrate incubated for 5 mins followed by substrate addition by fluorescence based assay. The class given is ADME. To be noted: recombinant enzyme.
Data set [7] deals with T1, Cholecystokinin receptor type A (Homo sapiens, UniProt P32238).
T1 sequence (P32238 whole entry): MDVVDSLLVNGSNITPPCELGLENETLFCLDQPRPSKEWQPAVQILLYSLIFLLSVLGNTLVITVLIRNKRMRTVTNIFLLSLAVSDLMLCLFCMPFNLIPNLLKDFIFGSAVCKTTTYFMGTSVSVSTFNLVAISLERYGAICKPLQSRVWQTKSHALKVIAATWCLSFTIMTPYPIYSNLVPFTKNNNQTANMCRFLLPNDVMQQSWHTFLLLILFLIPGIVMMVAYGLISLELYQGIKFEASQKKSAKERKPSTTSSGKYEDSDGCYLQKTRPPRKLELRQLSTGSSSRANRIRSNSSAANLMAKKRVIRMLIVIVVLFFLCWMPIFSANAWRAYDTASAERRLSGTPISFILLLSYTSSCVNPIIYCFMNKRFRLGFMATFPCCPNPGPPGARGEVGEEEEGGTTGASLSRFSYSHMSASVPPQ
Description: Displacement of [125I]CCK-8s from human CCKA incubated for 60 mins by scintillation counting method. A general note: In a radioligand displacement assay an active substance lowers the binding of a labelled ligand.

The subject of data set [8] is Mus musculus. Description: Effect on FADD in CD-1 mouse at 20 mg/kg, ip administered for 5 days and measured after 1 hr of last dosage by Westernblot analysis. The class given is functional, organism-based.
In data set [9] the test system is Mus musculus. Description: Cognitive enhancing effect in mouse model of 5xFAD assessed as increase in recognition memory at 5 mg/kg, po administered for 28 days and measured after 24 hrs of last dosage by novel object recognition test. The class given is functional, organism-based.

Sequence of Cytochrome P450 3A4 (P08684 whole entry): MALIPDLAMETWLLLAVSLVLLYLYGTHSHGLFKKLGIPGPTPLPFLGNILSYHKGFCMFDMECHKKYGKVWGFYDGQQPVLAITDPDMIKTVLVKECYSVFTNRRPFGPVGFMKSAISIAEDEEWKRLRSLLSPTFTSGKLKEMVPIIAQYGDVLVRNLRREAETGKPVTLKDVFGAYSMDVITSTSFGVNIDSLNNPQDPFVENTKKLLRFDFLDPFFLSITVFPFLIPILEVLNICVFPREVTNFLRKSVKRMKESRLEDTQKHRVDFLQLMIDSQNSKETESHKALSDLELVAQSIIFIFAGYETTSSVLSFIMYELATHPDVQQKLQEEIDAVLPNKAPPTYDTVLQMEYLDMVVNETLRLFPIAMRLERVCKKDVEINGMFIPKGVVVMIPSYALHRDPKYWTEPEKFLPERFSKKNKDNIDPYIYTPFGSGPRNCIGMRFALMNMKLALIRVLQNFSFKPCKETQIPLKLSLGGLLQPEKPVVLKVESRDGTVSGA

Consider `CCOP(=O)(OCC)C1(c2ccccc2)N=CC2C(=O)N(c3ccc(F)c(Cl)c3)C(=O)C21` (racemic), for which the Activity result in the data set with HeLa, with Vero [1], with MDCK [2], in the data set with Vero [3], in the data set on MDCK [4] and in the data set on MT4 was “Non-Toxic” each time. Further, the solubility result in [5] is recorded as “Soluble”. In addition, in [6], the Stability result is listed as “Stable”. The “inhibition (INH)” value on Cytochrome P450 3A4 is on record as “Not Active”. In [7], this molecule yielded an IC50 of 5.94 µM. In the data set on Mus musculus [8], the result was inactive. Besides, the outcome with Mus musculus [9] was Active.

One may read the IC50 as the concentration needed to halve the response being measured.
